Drawing on the METLIN SMRT retention time set (Domingo-Almenara et al. 2019), this text covers RP-LC retention time for 79 compounds.

The series in a line: gradient 5% acetonitrile 3 min, to 50% in 2 min, to 85% in 15 min, held 3 min, 100 µL/min. The conditions noted are these: column: Zorbax Extend-C18 2.1 x 50 mm; eluents: water / acetonitrile, 0.1% formic acid. In outline:
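Over 3 months, pure standards in mixtures of ~100 molecules were run by HPLC coupled to a quadrupole time-of-flight mass spectrometer in positive and negative ionization mode. The column was a Zorbax Extend-C18 (2.1 × 50 mm, 1.8 μm) at 100 μL/min, eluted with water and acetonitrile each holding 0.1% formic acid, with 40 μL dead and 900 μL dwell volumes. Retention time was determined from adduct peaks chosen by software and checked manually.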
Take `Cc1ccc(C)c(-c2coc(-c3ccc(NC(=O)NCc4ccccc4)cc3)n2)c1`: the RP-LC retention time worked out at 1220 s.
Then `COc1ccc(-c2nc(NC3CCCC3)c3ccccc3n2)cc1`, with 825 s; and `CCn1cc(S(=O)(=O)N2C[C@@H](COC)[C@H](c3ccncc3)C2)cn1`, with 625 s; and `CC(C)c1ccc(NC(=O)C2CC(=O)N(CCc3c[nH]c4ccc(F)cc34)C2)cc1` (centres undefined), with 929 s.
For the compound `COc1ccc(N2CC(c3nc(-c4ccc(Br)cc4)no3)CC2=O)cc1OC` (centres undefined), the RP-LC retention time came out at 977 s.
In the case of `CSc1ccc(CNC(=O)CN2CCc3[nH]c4c(C)cc(C)cc4c(=O)c3C2)cc1`, the RP-LC retention time stood at 904 s.
`CCOc1nc2ccccc2nc1N1CCCC(C(=O)N2CCN(C)CC2)C1` (centres undefined) came in with an RP-LC retention time of 646 s.
In turn, `CCCC(NC(=O)c1ccc(N(C)C)cc1)C(=O)Nc1nc2ccccc2[nH]1` (centres undefined) registered an RP-LC retention time of 706 s.
For `CCc1nnc2cc(N3CCN(S(=O)(=O)c4ccc(C(C)C)cc4)CC3)cnn12` the value was 820 s; for `COc1ccccc1N1CCN(S(=O)(=O)c2cc3n(c2)CCCNC3=O)CC1`, 696 s; for `Cc1ccc(C)c(NC(=O)Cc2nnc(-c3cnccn3)o2)c1`, 736 s.
Consider `COc1ccc(CNC(=O)c2cc3sc(Cl)cc3n2C)cc1`, for which the RP-LC retention time was determined as 1030 s.
Turning to `Cc1ccc(N2CCC(NC(=O)c3ccc(Br)o3)C2=O)cc1` (centres undefined), the RP-LC retention time worked out at 812 s.
For `Cc1nn(C)c(C)c1S(=O)(=O)N1CCc2nn(Cc3ccccc3)c(=O)n2CC1` the value was 714 s; for `CC(=O)c1cccc(NC(=O)c2cc(Cl)ccc2Cl)c1`, 848 s.
Compound `COc1cc(OC)c(NC(=O)N2CCCC(Cn3cnc4cccnc43)C2)cc1Cl` (centres undefined) gave an RP-LC retention time of 703 s.
`CCn1nccc1C(=O)N1CCC(c2nc3ccncc3n2CC(C)C)C1` (centres undefined) registered an RP-LC retention time of 555 s.
`CCOc1ccccc1NC(=O)Cn1nc(C(=O)N2CCCC2)c2ccccc21` showed an RP-LC retention time of 917 s.
For `Cn1ncc2c3ccccc3n(CC(=O)NCCCN3CCN(Cc4ccccc4)CC3)c2c1=O` the value was 597 s; for `CCOc1cccc(C2CC(c3cccc(OC)c3)=NC3(CCN(C(C)C)CC3)N2)c1O` (centres undefined), 618 s.
For the compound `Cc1nnc2c(NC(=O)c3ccc(Cl)s3)cccn12`, the RP-LC retention time was determined as 729 s.
Regarding `Cc1ccc(-c2ccc(-n3nc(C)c(S(=O)(=O)NCCN4CCCCC4C)c3C)nn2)cc1C` (centres undefined), the RP-LC retention time amounted to 748 s.
`Cc1nc(Cn2cccc2C(=O)Nc2cccc(Br)c2)no1`: the RP-LC retention time was determined as 936 s.
`CCOC(=O)C1CCCN(c2nc(-c3ccc(Cl)cc3)nc3ccccc23)C1` (centres undefined) returned an RP-LC retention time of 936 s.
For `O=C(NCc1ccc(C(F)(F)F)cc1)c1ccc(-c2cncnc2)nc1` the value was 782 s; for `CC(NC(=O)C1CCCN(C(=O)c2cc3sccc3n2C)C1)c1ccccc1` (centres undefined), 628 s; for `COc1ccc(S(=O)(=O)N2CCC(c3noc(-c4ccccn4)n3)C2)cc1` (centres undefined), 802 s.
Then `O=C(NCCc1c[nH]c2ccccc12)C(=O)c1cn(CC(=O)N2CCOCC2)c2ccccc12`, with 832 s; and `Cc1ccccc1S(=O)(=O)N1CCN(c2nc3ccncc3n(CC(C)C)c2=O)CC1`, with 775 s.
`COCCc1noc(C2CN(S(=O)(=O)c3ccccc3)C2)n1` displayed an RP-LC retention time of 751 s.
Then `CCSc1nnc(NC(=O)C2CCC(=O)N2S(=O)(=O)c2ccc(C)cc2)s1` (centres undefined), with 855 s.
`COc1ccc(-c2nc(-c3ccc4c(c3)oc(=O)n4C(C)C)no2)c(C)c1` came in with an RP-LC retention time of 1270 s.
Then `Cc1ccc2[nH]cc(CCNC(=O)c3c(-c4ccccn4)noc3C)c2c1`, with 964 s; and `O=C(N1CCC(NS(=O)(=O)Cc2ccccc2)CC1)N1C[C@H]2C[C@H](C1)[C@H]1CCCC(=O)N1C2`, with 649 s; and `Cc1oc2ccn(Cc3ccc(F)cc3)c(=O)c2c1C(=O)NCc1ccc(F)cc1F`, with 1100 s.
For `Cc1c(C(=O)N2CCCC2)cnn1-c1ccc(-c2nc(C(C)(C)C)no2)cn1` the value was 1010 s; for `Cc1ccc(C)c(CNS(=O)(=O)c2cc(-c3[nH]ncc3C(=O)N3CCCC3)oc2C)c1`, 835 s.
For `CC(C)NC(=O)C1CCN(C(=O)c2ncn3c2COC(c2ccc(F)cc2)C3)CC1` (centres undefined) the value was 679 s; for `CC(C)NC(=O)CSc1nnc2c3cc(-c4ccc(F)cc4)nn3ccn12`, 735 s.
In the case of `COc1cc(CC(=O)N2CCN(c3cc(C)n4c(C)nnc4n3)CC2)cc(OC)c1`, the RP-LC retention time amounted to 576 s.
`Cc1ccc(Nc2c(-c3ccccc3)nc3ccc(C)cn23)cc1` displayed an RP-LC retention time of 750 s.
Turning to `Cc1ccc(C)c(S(=O)(=O)N2C[C@@H](F)C[C@H]2C(=O)N2CCCCC2)c1`, the RP-LC retention time turned out to be 856 s.
Then `COc1cc(CC(=O)N2CCN(c3cc(C(C)C)n4cnnc4n3)CC2)cc(OC)c1`, with 635 s; and `CN1C(=O)Cc2cc(NC(=O)CN3C(=O)c4ccccc4C3=O)ccc21`, with 628 s; and `CCN1C(=O)c2cccc3c(NC(=O)Cc4ccc(S(C)(=O)=O)cc4)ccc1c23`, with 657 s.
Then `CCC(=O)NCC[C@@H]1CCc2ccc3c(c21)CCO3`, with 833 s; and `O=C(Nc1ccc(F)c(Cl)c1)C1CCN(C(=O)NCc2cccs2)CC1`, with 764 s.
In turn, `CCCS(=O)(=O)NCC1CC(=O)N(c2ccc(F)cc2)C1` (centres undefined) displayed an RP-LC retention time of 669 s.
For the compound `COc1ccc2c(c1)C1(CCN(C(=O)Nc3ccccc3F)C1)C(=O)N2` (centres undefined), the RP-LC retention time worked out at 701 s.
For `O=C(NCCCCCCCCNC(=O)c1cccc2ccccc12)c1cccc2ccccc12` the value was 1010 s.
Then `CCn1c(=O)n(CC)c2cc(N3CCCC3)c(NC(=O)NCc3cccc(OC)c3)cc21`, with 646 s; and `O=C1C(=O)N(C2CCN(S(=O)(=O)c3ccc(F)c(Cl)c3)CC2)CCN1Cc1ccccc1`, with 862 s; and `COc1cccc(-c2ccnc3nc(-c4ccccc4)nn23)c1`, with 919 s.
`CC(C)c1nnc2n1CCN(C(=O)c1cc(-c3ccccc3)n[nH]1)C2` registered an RP-LC retention time of 647 s.
Then `Cc1cc(C)c(C(=O)N2CCCC(C(=O)N3CCN(c4cccc(Cl)c4)CC3)C2)[nH]1` (centres undefined), with 953 s; and `O=C(Cn1ncccc1=O)N1CCN(c2ccc(-c3ccco3)nn2)CC1`, with 552 s.
Take `Cc1cc(C)c2c(N3CCCCC3)nc(C(=O)N3CCC(C)CC3)nc2n1`: the RP-LC retention time was 698 s.
Then `CC1CCN(C(=O)CSCc2nc3cccnc3n2C2CCCCC2)CC1`, with 960 s; and `CCOC(=O)c1cccc(N2C=C(C(=O)OC)S(=O)(=O)c3cc(F)ccc32)c1`, with 932 s.
In the case of `CCCC(=O)N1CCc2c([nH]c3ccc(OC)cc23)C1c1ccc(F)cc1` (centres undefined), the RP-LC retention time came out at 1040 s.
Then `CCCC(CCC)C(=O)NCCc1c[nH]c2cc(OC)ccc12`, with 886 s; and `CCn1cc(-c2nc(CC(=O)Nc3ccc(F)cc3)cs2)c2cccnc21`, with 894 s.
On to `Cc1ccc(CNC(=O)C2CCN(c3ncccc3S(=O)(=O)N3CCCCC3)CC2)cc1`, for which the RP-LC retention time was determined as 960 s.
For `CCCNC(=O)C1CCCN(c2ccc(SCC(=O)Nc3ccc4c(c3)OCCO4)nn2)C1` (centres undefined) the value was 657 s.
Then `O=C(CSc1nnc(Cc2ccccc2)o1)N1CCOCC1`, with 636 s; and `COCCn1cc2c3c(cccc31)CN(C(=O)Nc1cc(F)ccc1F)CC2`, with 938 s.
Then `CCC(C)Cn1c(CNC(=O)c2ccco2)nc2ccccc21` (centres undefined), with 664 s.
`Cc1cc(N2CCN(C(=O)c3ccc(Br)o3)CC2)nc(N2CCCC2)n1` registered an RP-LC retention time of 636 s.
`CC(C)c1ccc(S(=O)(=O)N2CCc3c(c(-c4nnc(-c5ccc(F)cc5)o4)nn3C)C2)cc1` gave an RP-LC retention time of 1100 s.
The compound `CC(C)c1nc(-n2cccc2)sc1C(=O)Nc1ccccc1F` came in with an RP-LC retention time of 1270 s.
As to `COc1ccc(N2CCN(C(=O)C3CCN(CCc4c[nH]c5ncccc45)CC3)CC2)cc1`, the RP-LC retention time was found to be 567 s.
Then `O=C(NCCN1CCOCC1)c1cccc(Nc2c(-c3ccc(Cl)cc3)nc3cnccn23)c1`, with 599 s; and `CC(C)Cn1cc(S(=O)(=O)N2CCc3ccccc3C2)c2cccnc21`, with 784 s; and `CC(=O)c1ccc(NC(=O)Cn2cc(-c3ccccc3)c3ncn(C4CC4)c(=O)c32)cc1`, with 846 s.
Then `CCOC(=O)Cn1c(C2CC(=O)N(c3ccc(Cl)cc3)C2)nc2ccccc21` (centres undefined), with 858 s; and `CCn1cnc(S(=O)(=O)N2CCC(C(=O)NC3CCCCC3)CC2)c1`, with 686 s.
Then `O=C(Nc1c2c(nn1-c1cccc(Cl)c1)CSC2)C(=O)N1CCCC1`, with 914 s; and `COc1cccc2c(NC(=O)c3ccccc3F)cc(C)nc12`, with 579 s; and `CCOc1ncccc1CNC(=O)c1ccc2cc[nH]c2c1`, with 756 s.
